According to US9725465B2, “Biaryl acetamide compounds and methods of use thereof” (Ambit Biosciences Corporation, priority 2013, dated 2017):

Tests used:
[1] = target: KIT kinase (Homo sapiens (Human), UniProt P10721); test: Competition binding assay (Kd), KIT
Procedure: In certain embodiments, competition binding assays were performed as described in Fabian et al., Nature Biotechnology 2005, 23, 329-336.
Competition binding assays used herein were developed, validated and performed as described in Fabian et al., Nature Biotechnology 2005, 23, 329-336. Kinases were produced as fusions to T7 phage (See, Fabian et al. or WO04/015142) or alternatively, the kinases were expressed in HEK-293 cells and subsequently tagged with DNA for PCR detection (See, WO08/005,310). […] The liganded beads were blocked with excess biotin and washed with blocking buffer (SeaBlock (Pierce), 1% BSA, 0.05% Tween 20, 1 mM DTT) to remove unbound ligand and to reduce non-specific binding. […] Test compounds were prepared as 100× stocks in DMSO and diluted into the aqueous environment. Kds were determined using an eleven point threefold serial dilutions. DMSO or control compounds were was added to control assays lacking a test compound. […] The kinase concentration in the eluates was measured by quantitative PCR. […]

[2] = target: FLT3 kinase (Homo sapiens (Human), UniProt P36888); test: Competition binding assay (Kd), FLT3
Sequence of FLT3 kinase (P36888 27-993): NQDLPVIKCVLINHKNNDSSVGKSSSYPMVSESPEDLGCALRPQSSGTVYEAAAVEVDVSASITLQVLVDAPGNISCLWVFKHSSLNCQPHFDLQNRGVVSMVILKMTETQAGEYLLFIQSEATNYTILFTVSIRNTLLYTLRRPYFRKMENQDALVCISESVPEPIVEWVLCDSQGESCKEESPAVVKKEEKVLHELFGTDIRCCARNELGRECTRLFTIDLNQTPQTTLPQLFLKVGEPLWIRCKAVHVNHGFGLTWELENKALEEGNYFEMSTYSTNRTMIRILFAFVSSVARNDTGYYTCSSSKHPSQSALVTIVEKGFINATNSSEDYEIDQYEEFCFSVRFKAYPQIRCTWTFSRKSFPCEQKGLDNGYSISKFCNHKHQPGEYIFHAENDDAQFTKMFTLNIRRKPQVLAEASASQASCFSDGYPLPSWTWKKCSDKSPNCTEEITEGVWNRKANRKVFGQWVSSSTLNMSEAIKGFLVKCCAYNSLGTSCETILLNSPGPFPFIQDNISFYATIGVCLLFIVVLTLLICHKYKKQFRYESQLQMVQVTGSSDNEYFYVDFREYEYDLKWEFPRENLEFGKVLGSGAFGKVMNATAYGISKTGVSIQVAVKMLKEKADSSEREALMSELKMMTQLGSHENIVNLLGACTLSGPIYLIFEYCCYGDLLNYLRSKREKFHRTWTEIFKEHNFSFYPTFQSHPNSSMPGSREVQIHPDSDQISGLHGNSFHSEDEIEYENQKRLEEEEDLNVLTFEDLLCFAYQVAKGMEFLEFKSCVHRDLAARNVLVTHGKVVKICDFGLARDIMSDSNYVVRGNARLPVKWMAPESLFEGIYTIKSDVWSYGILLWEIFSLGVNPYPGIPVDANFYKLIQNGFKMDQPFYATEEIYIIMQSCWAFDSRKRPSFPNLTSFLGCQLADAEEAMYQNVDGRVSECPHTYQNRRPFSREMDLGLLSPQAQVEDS
Procedure: A selectivity score (S35) is a quantitative measure of selectivity of a compound against a panel of kinases. […] Percent of control (POC) is calculated by subtracting the signal of the control compound (POC=0) from the signal of the test compound and dividing the outcome by the signal of DMSO (POC=100) minus the signal of the control compound.

Sequence of KIT kinase (P10721 26-976): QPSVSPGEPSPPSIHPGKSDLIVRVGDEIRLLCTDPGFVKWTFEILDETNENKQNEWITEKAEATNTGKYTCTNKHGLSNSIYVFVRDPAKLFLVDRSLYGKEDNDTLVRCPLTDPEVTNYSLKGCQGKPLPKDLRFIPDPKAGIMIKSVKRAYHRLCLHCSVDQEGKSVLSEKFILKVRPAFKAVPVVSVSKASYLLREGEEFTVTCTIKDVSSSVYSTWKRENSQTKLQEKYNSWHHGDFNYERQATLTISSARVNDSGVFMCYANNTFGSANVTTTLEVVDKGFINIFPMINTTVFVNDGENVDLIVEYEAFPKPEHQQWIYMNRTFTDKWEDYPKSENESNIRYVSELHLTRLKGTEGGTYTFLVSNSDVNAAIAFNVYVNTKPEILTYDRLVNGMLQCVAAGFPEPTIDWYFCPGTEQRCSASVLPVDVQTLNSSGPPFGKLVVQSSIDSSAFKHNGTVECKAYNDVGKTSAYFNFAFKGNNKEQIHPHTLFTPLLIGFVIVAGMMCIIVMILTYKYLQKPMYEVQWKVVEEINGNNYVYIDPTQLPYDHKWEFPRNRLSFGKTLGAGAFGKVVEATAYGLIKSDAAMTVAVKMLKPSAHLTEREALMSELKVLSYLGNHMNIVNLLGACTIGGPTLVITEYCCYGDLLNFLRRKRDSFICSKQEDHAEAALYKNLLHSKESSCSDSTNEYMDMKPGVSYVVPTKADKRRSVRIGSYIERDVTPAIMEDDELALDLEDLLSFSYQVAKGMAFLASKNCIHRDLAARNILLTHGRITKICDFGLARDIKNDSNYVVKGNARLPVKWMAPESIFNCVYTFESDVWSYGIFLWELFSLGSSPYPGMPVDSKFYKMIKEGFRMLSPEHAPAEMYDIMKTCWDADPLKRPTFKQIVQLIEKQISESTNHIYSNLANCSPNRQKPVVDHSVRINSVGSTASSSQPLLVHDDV

In the case of COc1cc2nc(-c3ccc(CC(=O)Nc4cc(C5(C(F)(F)F)CC5)on4)c(F)c3)cnc2cc1OCCN1CC(C)OC(C)C1 (centres unmarked) [Example 174, 2-[4-[6-[2-(2,6-dimethylmorpholin-4-yl)ethoxy]-7-methoxy-quinoxalin-2-yl]-2-fluoro-phenyl]-N-[5-[1-(trifluoro-methyl)cyclo-propyl]isoxazol-3-yl]acetamide], the Kd ([1]; competition binding assay) is reported as < 5 nM and the Kd ([2]; competition binding assay) is reported as < 5 nM.
CNCCOc1cc2ncc(-c3ccc(CC(=O)Nc4cc(C5(C(F)(F)F)CC5)on4)c(F)c3)nc2cc1OC [Example 175, 2-[2-fluoro-4-[7-methoxy-6-[2-(methyl-amino)ethoxy]quinoxalin-2-yl]phenyl]-N-[5-[1-(trifluoro-methyl)cyclo-propyl]isoxazol-3-yl]acetamide] was tested, and the Kd ([1]; competition binding assay) was < 5 nM and the Kd ([2]; competition binding assay) was < 5 nM.
COc1cc2nc(-c3ccc(CC(=O)Nc4cc(C5(C(F)(F)F)CC5)on4)c(F)c3)cnc2cc1OCCN(C)C(C)=O [Example 176, 2-[4-[6-[2-[acetyl(methyl)amino]ethoxy]-7-methoxy-quinoxalin-2-yl]-2-fluoro-phenyl]-N-[5-[1-(trifluoromethyl)cyclo-propyl]isoxazol-3-yl]acetamide] was tested, and the Kd ([1]; competition binding assay) was < 5 nM and the Kd ([2]; competition binding assay) was < 5 nM.
For COCCOc1cc2cc(-c3ccc(CC(=O)Nc4cc(C(C)(C)C(F)(F)F)on4)c(F)c3)cnc2cc1OC [Example 177, 2-[2-fluoro-4-[7-methoxy-6-(2-methoxyethoxy)-3-quinolyl]phenyl]-N-[5-(2,2,2-trifluoro-1,1-dimethyl-ethyl)isoxazol-3-yl]acetamide], the Kd ([1]; competition binding assay) was < 5 nM and the Kd ([2]; competition binding assay) was < 5 nM.
For COc1cc2ncc(-c3ccc(CC(=O)Nc4cc(C(C)(C)C(F)(F)F)on4)c(F)c3)cc2cc1OCCO [Example 178, 2-[2-fluoro-4-[6-(2-hydroxyethoxy)-7-methoxy-3-quinolyl]phenyl]-N-[5-(2,2,2-trifluoro-1,1-dimethyl-ethyl)isoxazol-3-yl]acetamide], the Kd ([1]; competition binding assay) was < 5 nM and the Kd ([2]; competition binding assay) was < 5 nM.
For COc1cc2ncc(-c3ccc(CC(=O)Nc4cc(C5(C(F)(F)F)CC5)on4)c(F)c3)cc2cc1OCCO [Example 179, 2-[2-fluoro-4-[6-(2-hydroxyethoxy)-7-methoxy-3-quinolyl]phenyl]-N-[5-[1-(trifluoromethyl)cyclo-propyl]isoxazol-3-yl]acetamide], the Kd ([1]; competition binding assay) was < 5 nM and the Kd ([2]; competition binding assay) was < 5 nM.
In the case of COc1cc2ncc(-c3ccc(CC(=O)Nc4cc(C5(C(F)(F)F)CC5)n[nH]4)c(F)c3)nc2cc1OC [Example 180, 2-[4-(6,7-dimethoxyquinoxalin-2-yl)-2-fluoro-phenyl]-N-[3-[1-(trifluoromethyl)cyclo-propyl]-1H-pyrazol-5-yl]acetamide], the Kd ([1]; competition binding assay) is reported as < 5 nM and the Kd ([2]; competition binding assay) is reported as < 5 nM.
In the case of COc1cc2ncc(-c3ccc(CC(=O)Nc4cc(C(C)(C)C(F)(F)F)nn4C)c(F)c3)nc2cc1OC [Example 181, 2-[4-(6,7-dimethoxyquinoxalin-2-yl)-2-fluoro-phenyl]-N-[2-methyl-5-(2,2,2-trifluoro-1,1-dimethyl-ethyl)pyrazol-3-yl]acetamide], the Kd ([1]; competition binding assay) is reported as < 5 nM and the Kd ([2]; competition binding assay) is reported as < 5 nM.
In the case of COc1cc2ncc(-c3ccc(CC(=O)Nc4cc(C(C)(C)C(F)(F)F)n[nH]4)c(F)c3)nc2cc1OC [Example 182, 2-[4-(6,7-dimethoxyquinoxalin-2-yl)-2-fluoro-phenyl]-N-[3-(2,2,2-trifluoro-1,1-dimethyl-ethyl)-1H-pyrazol-5-yl]acetamide], the Kd ([1]; competition binding assay) is reported as < 5 nM and the Kd ([2]; competition binding assay) is reported as < 5 nM.
With COc1cc2nc(-c3ccc(CC(=O)Nc4cc(C5(C(F)(F)F)CC5)on4)c(F)c3)cnc2cc1OCC#N [Example 183, 2-[4-[6-(cyanomethoxy)-7-methoxy-quinoxalin-2-yl]-2-fluoro-phenyl]-N-[5-[1-(trifluoromethyl)cyclo-propyl]isoxazol-3-yl]acetamide] the Kd ([1]; competition binding assay) was < 5 nM and the Kd ([2]; competition binding assay) was < 5 nM.
With COc1cc2ncc(-c3ccc(CC(=O)Nc4cc(C(C)(C)C(F)(F)F)on4)c(F)c3)nc2cc1O [Example 184, 2-[2-fluoro-4-(7-hydroxy-6-methoxy-quinoxalin-2-yl)phenyl]-N-[5-(2,2,2-trifluoro-1,1-dimethyl-ethyl)isoxazol-3-yl]acetamide] the Kd ([1]; competition binding assay) was < 5 nM and the Kd ([2]; competition binding assay) was < 5 nM.
In the case of COc1cc2nc(-c3ccc(CC(=O)Nc4cc(C5(C(F)(F)F)CC5)on4)c(F)c3)cnc2cc1OCCn1cncn1 [Example 185, 2-[2-fluoro-4-[7-methoxy-6-[2-(1,2,4-triazol-1-yl)ethoxy]quinoxalin-2-yl]phenyl]-N-[5-[1-(trifluoro-methyl)cyclopropyl]isoxazol-3-yl]acetamide], the Kd ([1]; competition binding) is reported as < 5 nM and the Kd ([2]; competition binding) is reported as < 5 nM.
In the case of COc1cc2nc(-c3ccc(CC(=O)Nc4cc(C5(C(F)(F)F)CC5)on4)c(F)c3)cnc2cc1OCC(=O)N(C)C [Example 186, 2-[4-[6-[2-(dimethylamino)-2-oxo-ethoxy]-7-methoxy-quinoxalin-2-yl]-2-fluoro-phenyl]-N-[5-[1-(trifluoro-methyl)cyclopropyl]isoxazol-3-yl]acetamide], the Kd ([1]; competition binding) is reported as < 5 nM and the Kd ([2]; competition binding) is reported as < 5 nM.
With COc1cc2ncc(-c3ccc(CC(=O)Nc4cc(C(C)(C)C(F)(F)F)on4)c(F)c3)nc2cc1OCCN1CCOCC1 [Example 187, 2-[2-fluoro-4-[6-methoxy-7-(2-morpholino-ethoxy)quinoxalin-2-yl]phenyl]-N-[5-(2,2,2-trifluoro-1,1-dimethyl-ethyl)isoxazol-3-yl]acetamide] the Kd ([1]; competition binding) was < 5 nM and the Kd ([2]; competition binding) was < 5 nM.
With COCCOc1cc2cc(-c3ccc(CC(=O)Nc4cc(C5(C(F)(F)F)CC5)on4)c(F)c3)cnc2cc1OC [Example 188, 2-[2-fluoro-4-[7-methoxy-6-(2-methoxyethoxy)-3-quinolyl]phenyl]-N-[5-[1-(trifluoromethyl)cyclo-propyl]isoxazol-3-yl]acetamide] the Kd ([1]; competition binding) was < 5 nM and the Kd ([2]; competition binding) was < 5 nM.
For COc1cc2ncc(-c3ccc(CC(=O)Nc4cc(C(C)(C)C(F)(F)F)on4)c(F)c3)cc2cc1OCCN1CCOCC1 [Example 189, 2-[2-fluoro-4-[7-methoxy-6-(2-morpholinoethoxy)-3-quinolyl]phenyl]-N-[5-(2,2,2-trifluoro-1,1-dimethyl-ethyl)isoxazol-3-yl]acetamide], the Kd ([1]; competition binding) was < 5 nM and the Kd ([2]; competition binding) was < 5 nM.
In the case of COc1cc2ncc(-c3ccc(CC(=O)Nc4cc(C5(C(F)(F)F)CC5)on4)c(F)c3)cc2cc1OCCN1CCOCC1 [Example 190, 2-[2-fluoro-4-[7-methoxy-6-(2-morpholinoethoxy)-3-quinolyl]phenyl]-N-[5-[1-(trifluoromethyl)cyclo-propyl]isoxazol-3-yl]acetamide], the Kd ([1]; competition binding) is reported as < 5 nM and the Kd ([2]; competition binding) is reported as < 5 nM.
For COc1cc2ncc(-c3ccc(CC(=O)Nc4cc(C(C)(C)C(F)(F)F)on4)c(F)c3)nc2cc1OCCN1CC[C@H](O)C1 [Example 191, 2-[2-fluoro-4-[7-[2-[(3S)-3-hydroxypyrrolidin-1-yl]ethoxy]-6-methoxy-quinoxalin-2-yl]phenyl]-N-[5-(2,2,2-trifluoro-1,1-dimethyl-ethyl)isoxazol-3-yl]acetamide], the Kd ([1]; competition binding) was < 5 nM and the Kd ([2]; competition binding) was < 5 nM.
In the case of COc1cc2ncc(-c3ccc(CC(=O)Nc4cc(C5(C(F)(F)F)CC5)on4)c(F)c3)cc2cc1OCCN [Example 192, 2-[4-[6-(2-aminoethoxy)-7-methoxy-3-quinolyl]-2-fluoro-phenyl]-N-[5-[1-(trifluoromethyl)cyclo-propyl]isoxazol-3-yl]acetamide], the Kd ([1]; competition binding) is reported as < 5 nM and the Kd ([2]; competition binding) is reported as < 5 nM.
With COc1cc2ncc(-c3ccc(CC(=O)Nc4cc(C5(C(F)(F)F)CC5)on4)c(F)c3)cc2cc1OCCNC(C)=O [Example 193, 2-[4-[6-(2-acetamidoethoxy)-7-methoxy-3-quinolyl]-2-fluoro-phenyl]-N-[5-[1-(trifluoromethyl)cyclo-propyl]isoxazol-3-yl]acetamide] the Kd ([1]; competition binding) was < 5 nM and the Kd ([2]; competition binding) was < 5 nM.
With COc1cc2ncc(-c3ccc(CC(=O)Nc4cc5n(n4)CCC5(C)C)c(F)c3)nc2cc1OC [Example 194, 2-[4-(6,7-dimethoxyquinoxalin-2-yl)-2-fluoro-phenyl]-N-(4,4-dimethyl-5,6-dihydropyrrolo[1,2-b]pyrazol-2-yl)acetamide] the Kd ([1]; competition binding) was < 5 nM and the Kd ([2]; competition binding) was < 5 nM.
In the case of COc1cc2nc(-c3ccc(CC(=O)Nc4cc(C5(C(F)(F)F)CC5)on4)c(F)c3)cnc2cc1OCCCO [Example 195, 2-[2-fluoro-4-[6-(3-hydroxypropoxy)-7-methoxy-quinoxalin-2-yl]phenyl]-N-[5-[1-(trifluoromethyl)cyclo-propyl]isoxazol-3-yl]acetamide], the Kd ([1]; competition binding) is reported as < 5 nM and the Kd ([2]; competition binding) is reported as < 5 nM.
In the case of CNCCOc1cc2nc(-c3ccc(CC(=O)Nc4cc(C(C)(C)C(F)(F)F)on4)c(F)c3)cnc2cc1OC [Example 196, 2-[2-fluoro-4-[6-methoxy-7-[2-(methyl-amino)ethoxy]quinoxalin-2-yl]phenyl]-N-[5-(2,2,2-trifluoro-1,1-dimethyl-ethyl)isoxazol-3-yl]acetamide], the Kd ([1]; competition binding) is reported as < 5 nM and the Kd ([2]; competition binding) is reported as < 5 nM.
For COc1cc2cc(-c3ccc(CC(=O)Nc4cc(C(C)(C)C(F)(F)F)on4)c(F)c3)cnc2cc1OCCN1CCOCC1 [Example 197, 2-[2-fluoro-4-[6-methoxy-7-(2-morpholinoethoxy)-3-quinolyl]phenyl]-N-[5-(2,2,2-trifluoro-1,1-dimethyl-ethyl)isoxazol-3-yl]acetamide], the Kd ([1]; competition binding) was < 5 nM and the Kd ([2]; competition binding) was < 5 nM.
With COc1cc2ncc(-c3ccc(CC(=O)Nc4cc(C(C)(C)C(F)(F)F)on4)c(F)c3)nc2cc1OCCN(C)C(C)=O [Example 198, 2-[4-[7-[2-[acetyl(methyl)amino]ethoxy]-6-methoxy-quinoxalin-2-yl]-2-fluoro-phenyl]-N-[5-(2,2,2-trifluoro-1,1-dimethyl-ethyl)isoxazol-3-yl]acetamide] the Kd ([1]; competition binding) was < 5 nM and the Kd ([2]; competition binding) was < 5 nM.
